Data on 7 compounds can be found in US12304917B1, “Pleuromutilin derivative containing a thiazolo[5,4-c]pyridine side chain, and a preparation method and application thereof” (SHAANXI UNIVERSITY OF SCIENCE AND TECHNOLOGY, priority 2024, dated 2025).

One data set deals with HEK293 cells. Conditions: human, 24 h.
The subject of a further data set is S. aureus ATCC 29213. The data set is described as follows: MIC by broth microdilution. Conditions: Staphylococcus aureus, ATCC29213, 24 h, read-out: Minimum inhibitory concentration S.a.^d. (Dilution methods test growth across graded concentrations, often in twofold steps.)
The test system of another data set is S. enterica ATCC14028. The data set is described as follows: MIC by broth microdilution. Conditions: Salmonella enterica, ATCC14028, 24 h, read-out: Minimum inhibitory concentration S.e.^g.
The test system of data set [1] is A549 cells. Conditions: human, 24 h.
The test system of a further data set is E. coli ATCC 25922. Kind of data set: MIC by broth microdilution. Conditions: Escherichia coli, ATCC25922, 24 h, read-out: Minimum inhibitory concentration E.c.^h.
Data set [2] has as its system HepG2 cells. Conditions: human, 24 h.
A further data set concerns A. baumannii ATCC 19606. Kind of data set: MIC by broth microdilution. Conditions: Acinetobacter baumannii, ATCC19606, 24 h, read-out: Minimum inhibitory concentration A.b.^f.
Another data set has as its system E. coli CMCC 44103. Kind of data set: MIC by broth microdilution. Conditions: Escherichia coli, CMCC44103, 24 h, read-out: Minimum inhibitory concentration E.c.^i.
For data set [3], the system named is Methicillin-resistant S. aureus ATCC 43300. The data set is described as follows: MIC by broth microdilution. Conditions: Staphylococcus aureus, ATCC43300|MRSA, 24 h, read-out: Minimum inhibitory concentration MRSA^c.
Data set [4] concerns Methicillin-resistant S. epidermidis ATCC 51625. The data set is described as follows: MIC by broth microdilution. Conditions: Staphylococcus epidermidis, ATCC51625|MRSE, 24 h, read-out: Minimum inhibitory concentration MRSE^e.
A short description of data set [5]: Solubility experiment (equilibrium solubility). Conditions: thermodynamic from solid.
Data set [6] deals with Methicillin-resistant S. aureus ATCC 33591. The data set is described as follows: MIC by broth microdilution. Conditions: Staphylococcus aureus, ATCC33591|MRSA, 24 h, read-out: Minimum inhibitory concentration MRSA^b.
Another data set is described as follows: physchem. Conditions: thermodynamic from solid.
Data set [7] deals with Gram-positive and Gram-negative bacteria. The data set is described as follows: MIC, panel of TABLE 1 strains as summarised in text. Conditions: comparison of MIC with positive control drugs.
The test system of data set [8] is HepG2 cells, HEK293 cells and A549 cells. Kind of data set: Cell Counting Kit-8 cytotoxicity, all tested cells as summarised in text. Conditions: at a concentration of 100 μM.
Data set [9] can be described thus: Cell Counting Kit-8 cytotoxicity. Conditions: human. A general note: Formazan colour is commonly taken as a measure of viable cells.
The subject of data set [10] is vancomycin-resistant Enterococcus-80. The data set is described as follows: MIC against clinical isolate. The class given is cell-based. Conditions: VRE, read-out: Antibacterial activity (MIC) VRE^g. An excerpt:
(§1) The Specific Steps are as Follows:

The test system of data set [11] is carbapenem-resistant Acinetobacter baumannii-882. Kind of data set: MIC against clinical isolate. Type of data set: cell-based. Conditions: read-out: Antibacterial activity (MIC) CR-AB^j.
Description: as §1

The subject of data set [12] is methicillin-resistant Staphylococcus aureus-596. The data set is described as follows: MIC against clinical isolate. Type of data set: cell-based. Conditions: MRSA, read-out: Antibacterial activity (MIC) MRSA^f.
Description: as §1

In data set [13] the test system is methicillin-resistant Staphylococcus aureus-206. Kind of data set: MIC against clinical isolate. Type of data set: cell-based. Conditions: MRSA, read-out: Antibacterial activity (MIC) MRSA^d.
Description: as §1

For data set [14], the system named is methicillin-resistant Staphylococcus aureus-171. The data set is described as follows: MIC against clinical isolate. The class given is cell-based. Conditions: MRSA, read-out: Antibacterial activity (MIC) MRSA^b.
Description: as §1

The test system of data set [15] is methicillin-resistant Staphylococcus aureus-575. Kind of data set: MIC against clinical isolate. Type of data set: cell-based. Conditions: MRSA, read-out: Antibacterial activity (MIC) MRSA^c.
Description: as §1

Data set [16] deals with multidrug-resistant Pseudomonas aeruginosa-126. The data set is described as follows: MIC against clinical isolate. Type of data set: cell-based. Conditions: read-out: Antibacterial activity (MIC) MDR-PA^h.
Description: as §1

Data set [17] concerns multidrug-resistant Klebsiella pneumoniae-893. The data set is described as follows: MIC against clinical isolate. Type of data set: cell-based. Conditions: clinical isolate MDR-KP-893.
Description: as §1

Data set [18] deals with methicillin-resistant Staphylococcus aureus-222. Kind of data set: MIC against clinical isolate. Type of data set: cell-based. Conditions: MRSA / MRSE, read-out: Antibacterial activity (MIC) MRSE^e.
Description: as §1

The test system of data set [19] is A549 cells. The data set is described as follows: Cell Counting Kit-8 cytotoxicity. Conditions: read-out: CC50 A549 Cells; CCK-8, 24 hours incubation.
Data set [20] concerns HepG2 cells. Kind of data set: Cell Counting Kit-8 cytotoxicity. Conditions: read-out: CC50 HepG2 Cells; CCK-8, 24 hours incubation.

In brackets after ≈: the same amount, converted by molar mass. Like-named read-outs stand apart in the source and are kept apart here.

A word on the CC50: it is the concentration that lowers cell viability or growth by half. Usually solubility stands for the concentration that dissolves in the medium under given conditions.

Regarding `C=C[C@]1(C)C[C@@H](OC(=O)CS[C@@H]2C[C@H]3CC[C@@H](C2)N3C)[C@]2(C)[C@H](C)CC[C@]3(CCC(=O)[C@H]32)[C@@H](C)[C@@H]1O` [Retapamulin, retapamulin, reference compound], the CC50 in the data set on HEK293 cells was determined as 57.5 µM; in the data set on A549 cells [1], 71.5 µM; in the data set with HepG2 cells [2] it was 61.1 µM. Besides, the MIC in the data set on S. aureus ATCC 29213 worked out at 4 µg/mL (≈ 7.73 µM); in the data set with S. enterica ATCC14028 it was 128 µg/mL (≈ 247 µM); in the data set on E. coli ATCC 25922, 32 µg/mL (≈ 61.8 µM); in the data set on A. baumannii ATCC 19606, 4 µg/mL (≈ 7.73 µM); in the data set on E. coli CMCC 44103, 32 µg/mL (≈ 61.8 µM).
On to `C=C[C@]1(C)C[C@@H](OC(=O)CSc2nc3cc[n+](Cc4ccc([N+](=O)[O-])cc4)cc3s2)[C@]2(C)[C@H](C)CC[C@]3(CCC(=O)[C@H]32)[C@@H](C)[C@@H]1O` [Compound I-6, 5-(4-nitrobenzyl)-2-((2-(((3aR,4R,5R,7S,8S,9R,9aS,12R)-8-hydroxy-4,7,9,12-tetramethyl-3-oxo-7-vinyldecahydro-4,9a-propancyclopenta[8]cyclo-5-yl)oxy)-2-oxoethyl)thio)thiazolo[5,4-c]pyridin-5-ium], for which the MIC in data set [3] was found to be 4 µg/mL; in the data set on S. aureus ATCC 29213, 32 µg/mL; in [4] it was 16 µg/mL; in the data set with S. enterica ATCC14028, 16 µg/mL; in the data set with E. coli ATCC 25922, 8 µg/mL; in data set [6], 16 µg/mL. The MIC in the data set with A. baumannii ATCC 19606 was 16 µg/mL; in the data set with E. coli CMCC 44103, 32 µg/mL. The compound further gave a solubility in data set [5] of 887 µM.
In the case of `C=C[C@]1(C)C[C@@H](OC(=O)CSC(C)(C)CNC(=O)[C@H](N)C(C)C)[C@]2(C)[C@H](C)CC[C@]3(CCC(=O)[C@H]32)[C@@H](C)[C@@H]1O` [Valnemulin, valnemulin, reference compound], the results for the CC50 in the data set on HEK293 cells, in the data set on A549 cells [1] and with HepG2 cells [2] were 65.4 µM, 53.7 µM and 77.3 µM, respectively. The MIC in the data set on S. aureus ATCC 29213 stood at 4 µg/mL (≈ 7.08 µM); with S. enterica ATCC14028 it was 64 µg/mL (≈ 113 µM); in the data set with E. coli ATCC 25922 it was 16 µg/mL (≈ 28.3 µM); in the data set with A. baumannii ATCC 19606, 2 µg/mL (≈ 3.54 µM); in the data set on E. coli CMCC 44103, 64 µg/mL (≈ 113 µM). For the same compound, the solubility in the data set “physchem” worked out at 386 µM (≈ 218 µg/mL).
Take `C=C[C@]1(C)C[C@@H](OC(=O)CSc2nc3cc[n+](Cc4ccc(F)cc4)cc3s2)[C@]2(C)[C@H](C)CC[C@]3(CCC(=O)[C@H]32)[C@@H](C)[C@@H]1O` [Compound I-3, 5-(4-fluorobenzyl)-2-((2-(((3aR,4R,5R,7S,8S,9R,9aS,12R)-8-hydroxy-4,7,9,12-tetramethyl-3-oxo-7-vinyldecahydro-4,9a-propancyclopenta[8]cyclo-5-yl)oxy)-2-oxoethyl)thio)thiazolo[5,4-c]pyridin-5-ium]: the MIC is 16 µg/mL in data set [3]; 16 µg/mL in the data set with S. aureus ATCC 29213; 8 µg/mL in data set [4]; 32 µg/mL in the data set on S. enterica ATCC14028; 8 µg/mL in the data set on E. coli ATCC 25922; 32 µg/mL in data set [6]. Besides, the MIC turned out to be 32 µg/mL in the data set with A. baumannii ATCC 19606 and 16 µg/mL in the data set on E. coli CMCC 44103. Further, in “physchem”, the solubility stood at 561 µM.
`C=C[C@]1(C)C[C@@H](OC(=O)CSc2nc3cc[n+](Cc4ccc(C#N)cc4)cc3s2)[C@]2(C)[C@H](C)CC[C@]3(CCC(=O)[C@H]32)[C@@H](C)[C@@H]1O` [Compound I-8, 5-(4-cyanobenzyl)-2-((2-(((3aR,4R,5R,7S,8S,9R,9aS,12R)-8-hydroxy-4,7,9,12-tetramethyl-3-oxo-7-vinyldecahydro-4,9a-propancyclopenta[8]cyclo-5-yl)oxy)-2-oxoethyl)thio)thiazolo[5,4-c]pyridin-5-ium]: the MIC in data set [3] came to 1 µg/mL; with S. aureus ATCC 29213, 0.5 µg/mL; in [4], 2 µg/mL; with S. enterica ATCC14028, 2 µg/mL; in the data set on E. coli ATCC 25922, 1 µg/mL; in data set [10] it was 16 µg/mL. The MIC in data set [11] is 64 µg/mL; in data set [12] it was 8 µg/mL; in data set [13] it was 64 µg/mL; in data set [14], 16 µg/mL; in data set [15], 32 µg/mL; in data set [16], 32 µg/mL. Moreover, the MIC was 16 µg/mL in data set [18], 1 µg/mL in data set [6], 1 µg/mL in the data set with A. baumannii ATCC 19606 and 2 µg/mL in the data set with E. coli CMCC 44103. Besides, the “antibacterial activity compared to valnemulin and retapamulin (in words)” value in data set [7] is listed as “good antibacterial activity”. Besides, the “toxicity to the tested cells (in words)” value in data set [8] is reported as “low toxicity”. For the same compound, the CC50 at 24 h in data set [9] is 79.2 µM. Further, the “Antibacterial activity (MIC) MDR-KP^i” value in data set [17] amounted to 16 µg/mL. For the same compound, the CC50 with A549 cells [19] was more than 100 µM; with HepG2 cells [20], 78.5 µM.
Take `C=C[C@]1(C)C[C@@H](OC(=O)CSc2nc3cc[n+](Cc4cc(C)cc(C)c4)cc3s2)[C@]2(C)[C@H](C)CC[C@]3(CCC(=O)[C@H]32)[C@@H](C)[C@@H]1O` [Compound I-12, 5-(3,5-dimethylbenzyl)-2-((2-(((3aR,4R,5R,7S,8S,9R,9aS,12R)-8-hydroxy-4,7,9,12-tetramethyl-3-oxo-7-vinyldecahydro-4,9a-propancyclopenta[8]cyclo-5-yl)oxy)-2-oxoethyl)thio)thiazolo[5,4-c]pyridin-5-ium]: the MIC in data set [3] amounted to 64 µg/mL; with S. aureus ATCC 29213 it was 16 µg/mL; in data set [4], 32 µg/mL; in the data set with S. enterica ATCC14028 it was 64 µg/mL; in the data set on E. coli ATCC 25922, 64 µg/mL; in data set [6], 64 µg/mL. In addition, the MIC in the data set on A. baumannii ATCC 19606 and with E. coli CMCC 44103 was 32 µg/mL each time. In the data set “physchem”, this compound registered a solubility of 549 µM.
Take `C=C[C@]1(C)C[C@@H](OC(=O)CSc2nc3cc[n+](Cc4ccc(C(F)(F)F)cc4)cc3s2)[C@]2(C)[C@H](C)CC[C@]3(CCC(=O)[C@H]32)[C@@H](C)[C@@H]1O` [Compound I-2, 5-(4-trifluoromethyl)-2-((2-(((3aR,4R,5R,7S,8S,9R,9aS,12R)-8-hydroxy-4,7,9,12-tetramethyl-3-oxo-7-vinyldecahydro-4,9a-propancyclopenta[8]cyclo-5-yl)oxy)-2-oxoethyl)thio)thiazolo[5,4-c]pyridin-5-ium]: the MIC in data set [3] came to 16 µg/mL; with S. aureus ATCC 29213, 8 µg/mL; in data set [4], 16 µg/mL; in the data set on S. enterica ATCC14028, 8 µg/mL; in the data set with E. coli ATCC 25922 it was 8 µg/mL; in [6] it was 32 µg/mL. The figures for the MIC in the data set on A. baumannii ATCC 19606 and in the data set on E. coli CMCC 44103 were 32 µg/mL and 16 µg/mL, respectively. In the data set “physchem”, this compound gave a solubility of 327 µM.
